Like-named read-outs stand apart in the source and are kept apart here.
Tests used:
MCF-10A cells = test: SRB in vitro cytotoxicity assay, MCF-10A; format: cell-based; settings: Homo sapiens, read-out: IC50 against MCF-10A cells
Method: (§1) Human breast cancer cell line [MCF-7, ER^+ (ATCC, HTB-22TM)] was cultured in Dulbecco's Modified Eagle Medium (DMEM) (Invitrogen, Carlsbad, CA, USA) supplemented with 10% Fetal bovine serum (FBS), 100 U/mL of penicillin, 0.1 mg/mL streptomycin, and 0.01 mg/mL insulin. Normal mammary epithelial cell line [MCF-10A (ATCC® CRL-10317)] was grown in Mammary Epithelium Basal Medium (MEBM) (Lonza, Walkersville, MD, USA). Both MCF-7 and MCF-10A cells were maintained in a humidified incubator at 37°C with 5% CO2. All the cell lines and 10% FBS were purchased from the American type cell culture (ATCC), Rockville, MD, USA. All chemicals were purchased from Sigma-Aldrich (St. Louis, MO, USA) unless otherwise specified.
(§2) MCF-7 and MCF-10A cells were trypsinized using […] trypsin/EDTA, plated in cell culture treated 96-well plates (5 x 10^3 cells/ well) and incubated for 24 h. After incubation, cells were treated with govaniadine (1, 2, 4, 8, or 16 μM) and maintained at 37°C with CO2 for 24, 48, or 72 h. After the incubation period, Sulforhodamine B (SRB) assay was performed as described previously to assess cell viability. Absorbance was read at optical density (OD) 540 nm (Synergy™ HT, BioTek, USA) and percentage cell viability was calculated. Negative controls contained only 0.1% DMSO and medium whereas paclitaxel was used as the positive control.

caspase-7 = test: Caspase-Glo 3/7 assay of caspase 7 activity in MCF-7 cells; format: cell-based, human; settings: 1 μM (P<0.05) and 2 μM (P<0.01), 24 h, vs control
Method: MCF-7 cells (2 x 10^5 cells/mL) were seeded in 96-well plates and maintained for 24 h at 37°C in 5% CO2. After 24 h, cells were exposed to govaniadine (1 and 2 μM) for further 24 h. Control cells were treated with 0.1% DMSO. Caspase-Glo® 3/7 assay (Promega, Madison, WI, USA) was used to measure caspase 7 activity according to the manufacturer's instructions, and luminescence was measured using a luminescence plate reader (Synergy™ HT, BioTek, USA).

Survivin mRNA = test: RT-qPCR survivin mRNA expression in MCF-7 cells; format: cell-based, human; settings: 24 h incubation
Method: (§3) Cells were grown in T25 flasks (2 x 10^5 cells/mL) for 24 h at 37°C in 5% CO2 and treated with govaniadine (1 and 2 μM) in triplicate and incubated for further 24 h. Control cells were treated with 0.1% DMSO. After 24 h, cells were harvested and total RNA was extracted with TRIzol® Reagent (Invitrogen; Thermo Fisher Scientific, Inc., Carlsbad, CA, USA) according to the manufacturer's protocol. cDNA synthesis and RT-qPCR were performed as described previously. RT-qPCR was performed in Stratagene Mx3000P real time PCR machine using MESA Green qPCR Master Mix Plus for SYBR Assay (Eurogentec, Seraing, Liège, Belgium). Data were normalized to an internal reference gene GAPDH, and relative gene expression was assessed using the comparative Ct method (2^−ΔΔCt).

MCF-7 cells [1] = test: Intracellular glutathione S-transferase (GST) measurement; format: cell-based, human; settings: 1 and 2 μM, 24 h, vs control
Method: (§4) MCF-7 cells were seeded (2x10^5 cell/mL) in 24-well plates and maintained for 24 h at 37°C in 5% CO2. Then the cells were exposed to different concentrations of govaniadine (1 and 2 μM) for further 24 h. Control cells were treated with 0.1% DMSO. After 24 h, cells were trypsinized and pelleted. Cell suspension of approximately 10^6 cells per mL in an appropriate buffer was prepared and homogenized using sonication in ice. Cell homogenate was transferred to 1.5 mL eppendorf tubes and centrifuged at 15,000 rpm for 10 min at 4°C. The resulting supernatant (cell lysate) was transferred to a new 1.5 mL micro centrifuge tube and kept on ice. Total amount of protein present in the cell lysate was determined using bovine serum albumin (BSA) as the standard. Reduced GSH was estimated as described previously. The activity of GST was determined as described by. Intracellular GSH and GST levels were expressed as μM/mg of cell lysate protein.

MCF-7 cells [2] = test: Cell morphology and nuclear changes by AO/EB and Hoechst staining; format: cell-based, human; settings: 2-16 μM, 24 h
Method: MCF-7 cells harvested by trypsinization upon reaching 70-80% confluence were seeded (5x10^4 cells/well) on cell culture treated cover slips placed in a 24-well cell culture plate and exposed to different concentrations (2, 4, 8, and 16 μM) of govaniadine for 24 h at 37°C in 5% CO2. Control cells were treated with 0.1% DMSO. After 24 h, cells were fixed with 4% formaldehyde, and AO/EB solution (10 μL) and Hoechst stain (0.005 mg/mL, 10 μL) were added for 2–5 min. Cells were then observed under a fluorescence microscope (Olympus Co., Tokyo, BX51TRF, Japan).

p53 mRNA = test: RT-qPCR p53 mRNA expression in MCF-7 cells; format: cell-based, human; settings: 24 h incubation
Method: as §3

MCF-7 cells [3] = test: DNA fragmentation analysis (gel electrophoresis); format: cell-based, human; settings: MCF-7 cells, 4, 8, 16 μM, 48 or 72 h
Method: MCF-7 cells (2x10^5 cell/mL) were treated with 4, 8, and 16 μM doses of govaniadine incubated for 48 or 72 h, respectively. Medium containing 0.1% DMSO and thymoquinone were used as negative and positive controls, respectively. After the incubation period, DNA fragmentation was analyzed as described by. Gel electrophoresis was carried out with extracted DNA and visualized under UV light to assess the effect on DNA fragmentation (Quantum-ST4 1100/20 M; Fisher Biotec Pty Ltd., Wembley, Australia) following electrophoresis on a 2.0% agarose gel stained with ethidium bromide (EB).

MCF-7 cells [4] = test: SRB in vitro cytotoxicity assay, MCF-7; format: cell-based, human; settings: for IC50: Homo sapiens, MCF7, SRB assay, read-out: IC50 (dose causing 50% inhibition) of MCF-7 cells
Method: as §1, §2

MCF-7 cells [5] = test: Intracellular glutathione (GSH) measurement; format: cell-based, human; settings: 1 and 2 μM, 24 h, vs control
Method: as §4

Bax mRNA = test: RT-qPCR Bax mRNA expression in MCF-7 cells; format: cell-based, human; settings: 24 h incubation
Method: as §3

MCF-7 cells [6] = test: Cell morphology by phase contrast light microscopy; format: cell-based, human; settings: 1-16 μM, 24, 48 and 72 h
Method: To determine the effect of govaniadine on the morphology of MCF-7 cells, cells (2x10^5 cells/mL) maintained in DMEM for 24 h were exposed to different concentrations (1, 2, 4, 8, and 16 μM) of govaniadine for further 24, 48, or 72 h at 37°C in 5% CO2. Control cells were treated with 0.1% DMSO. After the incubation period, morphological changes of the cells were observed and photographed on an inverted phase contrast microscope (Olympus CKX41SF, Japan).

MCF-7 cells [7] = test: Annexin V/PI flow cytometry apoptosis detection; format: cell-based, human; settings: 24 h; for early apoptotic cells: upper left quadrant; for late apoptotic cells: upper right quadrant
Method: MCF-7 cells (2x10^5 cell/mL) cultured in T25 cell culture flasks for 24 h at 37°C in 5% CO2 were exposed to govaniadine (4, 8, and 16 μM) for further 24 h. Control cells were treated with 0.1% DMSO. After 24 h, apoptosis mediated by the govaniadine on MCF-7 cells was detected by the Annexin V/ Propidium Iodide (PI) apoptosis detection kit (Santa Cruz, Texas, USA) according to the manufacturer's instructions by using a Partec Cyflow® Cube 6 Flow Cytometer. The data was analyzed with De Novo FCS Express version 4 software, and all experiments to detect apoptosis were done in triplicate.

MCF-7 cells [8] = test: Reactive oxygen species (NBT) assay; format: cell-based, human; settings: 1 and 2 μM, 24 h, vs control
Method: MCF-7 cells were seeded (2x10^5 cell/mL) in 96-well plates for 24 h at 37°C in 5% CO2. After 24 h, MCF-7 cells were treated with govaniadine (1 and 2 μM) in triplicate and incubated for 24 h. Control cells were treated with 0.1% DMSO. An assay for the intracellular conversion of nitro blue tetrazolium (NBT) to formazan by superoxide anion was used to measure the generation of reactive oxygen species in cells. NTB was subsequently added at a final concentration of 1.2 mM to the wells and incubated in the dark for 1 h at 37°C. The formazan content of the cells was then solubilized with […] of DMSO, and the absorbance was measured at OD 630 nm (Synergy™ HT Multi-Mode Microplate Reader).

SMILES: COc1ccc2c(c1O)C1Cc3cc4c(cc3CN1CC2)OCO4 (stereo not drawn) [govaniadine]
- IC50 (MCF-10A cells; 24 h postincubation): 269 ± 0.25 µM
- IC50 (MCF-10A cells; 48 h postincubation): 223.4 ± 0.32 µM
- IC50 (MCF-10A cells; 72 h postincubation): 194.9 ± 0.24 µM
- Caspase-7 activity (caspase-7): activated significantly
- survivin mRNA fold increase (Survivin mRNA; 1 μM): 9.08 fold
- survivin gene expression (Survivin mRNA; 2 μM): not regulated
- GST level (MCF-7 cells [1]): increased significantly
- Nuclear changes (Hoechst 33258 staining) (MCF-7 cells [2]): Nuclei with brighter hypercondensed chromatin
- p53 mRNA fold change (p53 mRNA; 1 μM): 11.37 fold
- p53 mRNA fold change (p53 mRNA; 2 μM): 15.42 fold
- DNA fragmentation (MCF-7 cells [3]): DNA fragmentation in a time- and dose-dependent manner
- IC50 (MCF-7 cells [4]; 24 h postincubation): 3.05 ± 0.27 µM
- IC50 (MCF-7 cells [4]; 48 h postincubation): 2.52 ± 0.31 µM
- IC50 (MCF-7 cells [4]; 72 h postincubation): 1.6 ± 0.23 µM
- Selectivity of cytotoxicity, MCF-7 versus MCF-10A cells (MCF-7 cells [4]; comparison of IC50 values in MCF-7 and MCF-10A with reference drug): more selective towards MCF-7 cells than the paclitaxel
- Intracellular GSH level (MCF-7 cells [5]): decreased significantly
- Bax mRNA fold change (Bax mRNA; 1 μM): 5.07 fold
- Bax mRNA fold change (Bax mRNA; 2 μM): 11.66 fold
- Morphological changes (phase contrast microscopy) (MCF-7 cells [6]): increased the number of apoptotic cells
- early apoptotic cells (MCF-7 cells [7]; 4 μM): 3.31%
- late apoptotic cells (MCF-7 cells [7]; 4 μM): 11.15%
- early apoptotic cells (MCF-7 cells [7]; 16 μM): 7.33%
- late apoptotic cells (MCF-7 cells [7]; 16 μM): 41.42%
- viability at 4 µM (MCF-7 cells [7]; Homo sapiens, MCF7, 4 μM, lower left quadrant, read-out: intact viable cells): 78.6%
- viability at 8 µM (MCF-7 cells [7]; Homo sapiens, MCF7, 8 μM, lower left quadrant, read-out: intact viable cells): 61.1%
- viability at 16 µM (MCF-7 cells [7]; Homo sapiens, MCF7, 16 μM, lower left quadrant, read-out: intact viable cells): 36.8%
- ROS production (MCF-7 cells [8]): dose-dependent significant (p<0.05) increase

SMILES: CC(=O)O[C@H]1C(=O)[C@@]2(C)[C@H]([C@H](OC(=O)c3ccccc3)[C@]3(O)C[C@H](OC(=O)[C@H](O)[C@@H](NC(=O)c4ccccc4)c4ccccc4)C(C)=C1C3(C)C)[C@]1(OC(C)=O)CO[C@@H]1C[C@@H]2O [paclitaxel, reference compound]
- IC50 (MCF-10A cells; 24 h postincubation): 11.9 ± 1.5 µM
- IC50 (MCF-10A cells; 48 h postincubation): 6.06 ± 2.45 µM
- IC50 (MCF-10A cells; 72 h postincubation): 3.11 ± 1.98 µM
- IC50 (MCF-7 cells [4]; 24 h postincubation): 2.21 ± 0.15 µM
- IC50 (MCF-7 cells [4]; 48 h postincubation): 0.13 ± 0.05 µM
- IC50 (MCF-7 cells [4]; 72 h postincubation): 0.0089 ± 0.006 µM

Source: PMC6081593, “Cytotoxic and Apoptotic Effects of Govaniadine Isolated from Corydalis govaniana Wall. Roots on Human Breast Cancer (MCF-7) Cells” (BioMed Research International, 2018)
